Results taken from patent publication US5010076A, “1,7-fused 1H-indole-2-carboxylic acid-N-(1,4-benzodiazepin-3-yl)amides” (Kali-Chemie Pharma GmbH, priority 1989, dated 1991).
No end group written: not given here.

Experiments:
[1] = determination of the minimum toxic dose; assay type: in vivo, mouse (male); conditions: mouse, oral; lowest dose causing death or serious symptoms of toxicity; max 300 mg/kg; 24 h
Description: Male mice weighing 20-25 g were given maximum oral doses of 300 mg/kg of the test substance. The animals were observed carefully for three hours for symptoms of toxicity. In addition, all symptoms and deaths were recorded for a period of 24 hours after administration. Concomitant symptoms were likewise observed and recorded. If death or serious symptoms of toxicity were observed, further mice were given increasingly lower doses. The lowest dose which caused death or serious symptoms of toxicity is indicated in the following Table A as the minimum toxic dose.

[2] = target: T1, peripheral CCK receptors (pancreas) (Rattus norvegicus, UniProt P30551); assay: peripheral CCK receptor binding affinity on rat pancreas homogenate (inhibition of 3[H]-CCK-8 binding); parameters: species or system rat (male Wistar); conditions: 0.3 nM 3[H]-CCK-8, 90 min, 25° C., pH 7.4, calculated from IC50 by Cheng-Prusoff, read-out: In vitro binding to peripheral CCK receptors (pancreas) pKi values (converted)
T1 construct: Whole pancreas glands from male Wistar rats with a body weight of 150-300 g; from tissue; host or cells: whole pancreas glands of male Wistar rats, washed homogenate
T1 sequence (P30551 1-444): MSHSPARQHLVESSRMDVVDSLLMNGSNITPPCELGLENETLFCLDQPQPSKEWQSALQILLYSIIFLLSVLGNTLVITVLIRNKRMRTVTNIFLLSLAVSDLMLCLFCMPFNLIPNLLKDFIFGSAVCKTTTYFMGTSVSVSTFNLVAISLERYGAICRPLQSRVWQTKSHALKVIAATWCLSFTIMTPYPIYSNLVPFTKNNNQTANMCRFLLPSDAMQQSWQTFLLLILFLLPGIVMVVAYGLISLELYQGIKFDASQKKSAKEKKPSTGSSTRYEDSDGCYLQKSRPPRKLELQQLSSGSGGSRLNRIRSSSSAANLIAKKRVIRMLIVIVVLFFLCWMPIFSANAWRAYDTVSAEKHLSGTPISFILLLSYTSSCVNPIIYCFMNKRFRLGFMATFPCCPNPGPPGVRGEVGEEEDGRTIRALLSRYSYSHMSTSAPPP
Description: The affinity of the compounds of formula I for peripheral CCK receptors was measured in vitro on rat pancreas homogenate. The inhibition of the binding of the physiologically relevant octopeptide CCK-8 to peripheral CCK receptors by the test substances was determined.
The receptor binding studies were carried out by a modification of the method of van Dijk et al. (J. Neuroscience 4 (1984), 1021-1033), using soya bean trypsin inhibitor (=SBTI) as protease inhibitor. ^3 [H]-CCK-8, code TRK 775, from Amersham Int., having a specific activity of 60-90 Ci/mmol, was used as tritium-labelled CCK-8.
Whole pancreas glands from male Wistar rats with a body weight of 150-300 g, which had been sacrificed by decapitation, were freed of fatty tissue and homogenized for 15 seconds in a 50-fold volume of an ice-cold test buffer solution (10 mmol 2-[4-(2-hydroxyethyl)-piperazin-1-yl]-ethanesulfonic acid (=HEPES), 130 mmol sodium chloride, 5 mmol magnesium chloride, 0.02% bacitracins, 0.01% SBTI, pH 7.4) with a Kinematica Polytron type homogenizer. The homogenates were then centrifuged at 48,000 g for 10 minutes. This washing method was repeated. After the last centrifugation, the residue which was obtained each time in the form of a pellet was suspended in a 550-fold volume of the test buffer solution and immediately used for the measurement.
For the binding test, 500 μl of the tissue homogenate were incubated with 50 μl of test buffer solution or 50 μl of a solution of the compound to be investigated and with 50 μl of a ^3 [H]-CCK-8 solution (final concentration 0.3 nM). The non-specific binding was assumed to be 0.1 μmol CCK-8. The incubation lasted 90 minutes at 25° C. All the compounds were measured 3 times at each of several concentrations.
Aqueous solutions were employed as test substance solutions and were prepared by appropriate dilution of 60×10^-4 molar aqueous stock solutions. Test substances which are sparingly soluble in water were first dissolved in 96% ethanol, and this solution was diluted with sufficient water for the ethanol concentration not to exceed 1.6% by volume in the solution to be tested.
Bound and free ^3 [H]-CCK-8 were separated by filtration through glass fiber filters. The filters were washed twice with 3 ml of HEPES solution each time and then placed in the scintillation solution (SAVE scintillation solution from Packard) in the dark overnight and counted in a Packard TriCarb 1500™liquid scintillation counter. The IC50 of the respective test substance was determined to be that concentration which caused a 50% inhibition of the specific binding of tritiated CCK-8 to the receptors. From this, the corresponding pKi value was calculated using the Cheng-Prusoff equation. […]

[3] = test system: CCK-induced disturbance of stomach emptying; assay: effect of test substances on CCK-induced disturbances of emptying of the stomach (charcoal transport into duodenum); assay type: in vivo, mouse (female NMRI)
Description: Doses of CCK lead to substantial blockade of the transpyloric transport of chyme from the stomach into the duodenum. The ability of the test substances to eliminate this blocking effect of CCK was investigated.
Female NMRI mice having body weights of 20-25 g were used in groups of ten animals each. […] A control group received only the Tylose® solution or the solution containing the solubilizer polyethylene glycol in each case. 60 minutes later the animals were given a subcutaneous injection of 80 Ig/kg CCK-8. After a further 5 minutes the animals were each orally administered 0.3 ml of a charcoal suspension (5% charcoal in 2% strength Tylose solution). The mice were sacrificed 5 minutes later and subsequently dissected. They were examined to find whether charcoal suspension had advanced into the duodenum.
The percentage of animals in which the CCK effect was eliminated and charcoal suspension was found in the duodenum after administration of the test substances was determined.

[4] = test system: CCK-induced gallbladder emptying; assay: inhibitory effect of test substances on CCK-induced gallbladder emptying (gallbladder weight); assay type: in vivo, mouse (female NMRI)
Description: CCK causes a contraction of the muscles of the gallbladder and thus an emptying of the gallbladder. […] Intraperitoneal doses of 0.1 μg/kg CCK-8 may result in the weight of the gallbladders decreasing to about 1/10 of the original weight.
Female NMRI mice having a body weights of 20-25 g were used in groups of 10 animals each. After withdrawal of feed for 24 hours (drinking water ad libitum) the animals received an oral dose of the test substance suspended in a volume of 10 ml/kg of body weight of a 1% strength Tylose® solution (=methylcellulose) or in a volume of 10 ml/kg of body weight of a solubilizer solution which contained 5% glycerol, 87% polyethylene glycol 400, and 8% water. Two control groups each received only the Tylose® solution or the solution containing the solubilizer polyethylene glycol. One of the control groups and all the animals treated with test substance received 0.1 Ig/kg CCK-8 injected i.p. 60 minutes later.
The mice were sacrificed 5 minutes after the CCK-8 administration, and the gallbladders were excised and weighed.
The following Table C lists the percentage inhibition of the CCK-8 effect on gallbladder weights caused by the test substances.

[5] = dose 1.0 μmol/kg mouse oral, CCK-8 s.c. 60 min later
[6] = dose 10 μmol/kg mouse oral, CCK-8 i.p. 60 min later
[7] = dose 0.215 μmol/kg mouse oral, CCK-8 s.c. 60 min later
[8] = dose 100 μmol/kg mouse oral, CCK-8 i.p. 60 min later

| Compound | Minimum toxic dose [1] | Ki [2] | % of Animals in which the CCK Effect was Eliminated [3, 5] | % Inhibition of CCK-induced Gallbladder Emptying [4, 6] | also measured |
| --- | --- | --- | --- | --- | --- |
| CN1C(=O)C(NC(=O)c2cc3cccc4c3n2CC4)N=C(c2ccccc2)c2ccccc21 (centres unmarked) [Example 33] | > 300 mg/kg | 3.72 nM | 50% | 19% |  |
| CN1C(=O)C(NC(=O)c2cc3cccc4c3n2CCC4)N=C(c2ccccc2)c2ccccc21 (centres unmarked) [Example 6, 3-[(4H-Pyrrolo[3,2,1-ij]-5,6-dihydroquinoline-2-carbonyl)-amino]-1-methyl-2-oxo-5-phenyl-1H-2,3-dihydro-1,4-benzodiazepine] |  | 3.24 nM |  | 73% | % of Animals in which the CCK Effect was Eliminated ([3]; dose 0.681 μmol/kg mouse oral, CCK-8 s.c. 60 min later): 40% |
| CN1C(=O)C(NC(=O)c2cc3cccc4c3n2CCC4)N=C(c2c(F)cccc2F)c2ccccc21 (centres unmarked) [Example 20] | > 300 mg/kg | 0.851 nM | 50% | 25% |  |
| CCK-8: the octapeptide CCK-8 is the smallest unit with the complete spectrum of CCK effects (DYMGWMDF; ends and bridges not checked; UniProt P06307 96-103, looked up) [reference compound] |  |  |  |  | animals with traces of charcoal suspension in the duodenum ([3]; control animals which received a dose of CCK (80 Ig/kg CCK-8 subcutaneous), no test substance): not more than 5%; weight of the gallbladders decreasing to fraction of the original weight ([4]; intraperitoneal 0.1 μg/kg CCK-8): about 1/10 |
| COc1ccc2c(c1)N(C)C(=O)C(NC(=O)c1cc3cccc4c3n1CCC4)N=C2c1ccccc1F (centres unmarked) [Example 9] | > 300 mg/kg | 0.794 nM |  |  | % of Animals in which the CCK Effect was Eliminated [3, 7]: 50%; % Inhibition of CCK-induced Gallbladder Emptying ([4]; dose 4.6 μmol/kg mouse oral, CCK-8 i.p. 60 min later): < 25%; % Inhibition of CCK-induced Gallbladder Emptying [4, 8]: 99% |
| COc1ccc2c(c1)N(C)C(=O)C(NC(=O)c1cc3cccc4c3n1CCC4)N=C2c1ccccc1 (single isomer, unassigned; (-)) [Example 2a, (-)-3-[(4H-pyrrolo[3,2,1-ij]-5,6-dihydroquinoline-2-carbonyl)-amino]-8-methoxy-1-methyl-2-oxo-5-phenyl-1H-2,3-dihydro-1,4-benzodiazepine] |  | 0.257 nM |  |  | % of Animals in which the CCK Effect was Eliminated ([3]; dose 0.1 μmol/kg mouse oral, CCK-8 s.c. 60 min later): 100%; % Inhibition of CCK-induced Gallbladder Emptying ([4]; dose 0.46 μmol/kg mouse oral, CCK-8 i.p. 60 min later): 16% |
| COc1ccc2c(c1)N(C)C(=O)C(NC(=O)c1cc3cccc4c3n1CCC4)N=C2c1ccc(F)cc1F (centres unmarked) [Example 15] |  | 1.23 nM | 57% | < 25% | % of Animals in which the CCK Effect was Eliminated ([3]; dose 0.10* μmol/kg mouse oral, * = administered in solution containing solubilizer (PEG 400)): 90%; % Inhibition of CCK-induced Gallbladder Emptying [4, 8]: 100%; % Inhibition of CCK-induced Gallbladder Emptying ([4]; dose 0.1* μmol/kg mouse oral, * = administered in solution containing solubilizer): < 25% |
| COc1ccc2c(c1)N(C)C(=O)C(NC(=O)c1cc3cccc4c3n1CCC4)N=C2c1ccccc1 (single isomer, unassigned; (+)) [Example 2b, (+)-3-[(4H-pyrrolo[3,2,1-ij]-5,6-dihydroquinoline-2-carbonyl)-amino]-8-methoxy-1-methyl-2-oxo-5-phenyl-1H-2,3-dihydro-1,4-benzodiazepine] |  | 19.5 nM |  |  | % of Animals in which the CCK Effect was Eliminated ([3]; dose 10 μmol/kg mouse oral, CCK-8 s.c. 60 min later): 70%; % Inhibition of CCK-induced Gallbladder Emptying ([4]; dose 46 μmol/kg mouse oral, CCK-8 i.p. 60 min later): 8.3% |
| COc1ccc2c(c1)N(C)C(=O)C(NC(=O)c1cc3cccc4c3n1CCC4)N=C2c1ccccc1 (centres unmarked) [Example 1, 3-[(4H-Pyrrolo[3,2,1-ij]-5,6-dihydroquinoline-2-carbonyl)-amino]-8-methoxy-1-methyl-2-oxo-5-phenyl-1H-2,3-dihydro-1,4-benzodiazepine] | > 300 mg/kg | 1.35 nM |  | 66% | % of Animals in which the CCK Effect was Eliminated [3, 7]: 50%; % Inhibition of CCK-induced Gallbladder Emptying ([4]; dose 1 μmol/kg mouse oral, CCK-8 i.p. 60 min later): < 25% |
